Data published in PubChem BioAssay AID2060492 (Molecular Pharmacology Branch, DTP, NCI, 2025).

Test system: 695427-040-R-J1-PDC complex spheroids, viability percent T/C
Assay: Anticancer human tumor 695427-040-R-J1-PDC patient-derived colon adenocarcinoma cell line growth inhibition [GQUAD]
Conditions: for IC50: curve of first compound; for viability, T/C: stronger effect = lower value
Summary of the method: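 Viability of tumor cells grown as complex spheroids with endothelial and stromal cells, exposed to drug combinations. Top concentration at or near clinical Cmax (else 10 microM), diluted in half-log increments.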

[1] = second compound 0.0316 µM, first compound 0.0316 µM
[2] = second compound 0.0316 µM, first compound 0.1 µM
[3] = second compound 0.0316 µM, first compound 0.316 µM
[4] = second compound 0.0316 µM, first compound 1 µM
[5] = second compound 0.0316 µM, first compound 3.16 µM
[6] = second compound 0.0316 µM, first compound 10 µM
[7] = second compound 0.1 µM, first compound 0.0316 µM
[8] = second compound 0.1 µM, first compound 0.1 µM
[9] = second compound 0.1 µM, first compound 0.316 µM
[10] = second compound 0.1 µM, first compound 1 µM
[11] = second compound 0.1 µM, first compound 3.16 µM
[12] = second compound 0.1 µM, first compound 10 µM
[13] = second compound 0.316 µM, first compound 0.0316 µM
[14] = second compound 0.316 µM, first compound 0.1 µM
[15] = second compound 0.316 µM, first compound 0.316 µM
[16] = second compound 0.316 µM, first compound 1 µM
[17] = second compound 0.316 µM, first compound 3.16 µM
[18] = second compound 0.316 µM, first compound 10 µM
[19] = second compound 1 µM, first compound 0.0316 µM
[20] = second compound 1 µM, first compound 0.1 µM
[21] = second compound 1 µM, first compound 0.316 µM
[22] = second compound 1 µM, first compound 1 µM
[23] = second compound 1 µM, first compound 3.16 µM
[24] = second compound 1 µM, first compound 10 µM
[25] = second compound 3.16 µM, first compound 0.0316 µM
[26] = second compound 3.16 µM, first compound 0.1 µM
[27] = second compound 3.16 µM, first compound 0.316 µM
[28] = second compound 3.16 µM, first compound 1 µM
[29] = second compound 3.16 µM, first compound 3.16 µM
[30] = second compound 3.16 µM, first compound 10 µM
[31] = second compound 10 µM, first compound 0.0316 µM
[32] = second compound 10 µM, first compound 0.1 µM
[33] = second compound 10 µM, first compound 0.316 µM
[34] = second compound 10 µM, first compound 1 µM
[35] = second compound 10 µM, first compound 3.16 µM
[36] = second compound 10 µM, first compound 10 µM
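Further: spheroids exposed to compounds for seven days before readout.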

In the case of `C=CCn1c(=O)c2cnc(Nc3ccc(N4CCN(C)CC4)cc3)nc2n1-c1cccc(C(C)(C)O)n1` + CN(C)c1ccc(Nc2c3ccc(NC(=O)CCN4CCCC4)cc3nc3cc(NC(=O)CCN4CCCC4)ccc23)cc1, the IC50 (second compound 0.0316 µM) is reported as greater than 10 µM, the IC50 (second compound 0.1 µM) is reported as greater than 10 µM and the IC50 (second compound 0.316 µM) is reported as greater than 10 µM. It also gave an IC50 (second compound 1 µM) greater than 10 µM, an IC50 (second compound 3.16 µM) of 8.77 µM and an IC50 (second compound 10 µM) of 5.2 µM. The viability, T/C [1] was 104%, the viability, T/C [2] was 104% and the viability, T/C [3] was 87.5%. It also gave a viability, T/C [4] of 83.2%, a viability, T/C [5] of 66.6% and a viability, T/C [6] of 61.7%. It also gave a viability, T/C [7] of 97.8%, a viability, T/C [8] of 93.9% and a viability, T/C [9] of 93.2%. The viability, T/C [10] was 77.4%, the viability, T/C [11] was 71.2% and the viability, T/C [12] was 59.3%. The viability, T/C [13] was 101%, the viability, T/C [14] was 89.1% and the viability, T/C [15] was 85.9%. For the same compound, the viability, T/C [16] was 85.2%, the viability, T/C [17] was 72.8% and the viability, T/C [18] was 53.3%. For the same compound, the viability, T/C [19] was 95.5%, the viability, T/C [20] was 103% and the viability, T/C [21] was 81.9%. It also gave a viability, T/C [22] of 77.2%, a viability, T/C [23] of 66.9% and a viability, T/C [24] of 52.3%. The viability, T/C [25] was 95.2%, the viability, T/C [26] was 91.3% and the viability, T/C [27] was 87.9%. The viability, T/C [28] was 80.9%, the viability, T/C [29] was 63.8% and the viability, T/C [30] was 48.3%. For the same compound, the viability, T/C [31] was 91.6%, the viability, T/C [32] was 84.1% and the viability, T/C [33] was 82.3%. For the same compound, the viability, T/C [34] was 67.8%, the viability, T/C [35] was 56.4% and the viability, T/C [36] was 42%.

For `CC(C)(O)C1CCC(Nc2ccc3ncc(-c4cccc(C(F)(F)F)c4)n3n2)CC1` (stereo unspecified) + CN(C)c1ccc(Nc2c3ccc(NC(=O)CCN4CCCC4)cc3nc3cc(NC(=O)CCN4CCCC4)ccc23)cc1, the IC50 (second compound 0.0316 µM) was 1.59 µM, the IC50 (second compound 0.1 µM) was 1.67 µM and the IC50 (second compound 0.316 µM) was 1.61 µM. For the same compound, the IC50 (second compound 1 µM) was 1.59 µM, the IC50 (second compound 3.16 µM) was 1.53 µM and the IC50 (second compound 10 µM) was 1.47 µM. It also gave a viability, T/C [1] of 102%, a viability, T/C [2] of 91.7% and a viability, T/C [3] of 87.4%. For the same compound, the viability, T/C [4] was 73.4%, the viability, T/C [5] was 15.2% and the viability, T/C [6] was 14.3%. For the same compound, the viability, T/C [7] was 106%, the viability, T/C [8] was 97% and the viability, T/C [9] was 108%. The viability, T/C [10] was 78.8%, the viability, T/C [11] was 14.7% and the viability, T/C [12] was 12.1%. The viability, T/C [13] was 105%, the viability, T/C [14] was 96.9% and the viability, T/C [15] was 94.9%. The viability, T/C [16] was 74%, the viability, T/C [17] was 15.2% and the viability, T/C [18] was 16.6%. For the same compound, the viability, T/C [19] was 95%, the viability, T/C [20] was 100% and the viability, T/C [21] was 90.9%. It also gave a viability, T/C [22] of 74.9%, a viability, T/C [23] of 13% and a viability, T/C [24] of 13.6%. The viability, T/C [25] was 91.9%, the viability, T/C [26] was 92.2% and the viability, T/C [27] was 89.5%. For the same compound, the viability, T/C [28] was 71.3%, the viability, T/C [29] was 13.2% and the viability, T/C [30] was 11.4%. The viability, T/C [31] was 84.7%, the viability, T/C [32] was 81.3% and the viability, T/C [33] was 75.9%. For the same compound, the viability, T/C [34] was 69.4%, the viability, T/C [35] was 11.8% and the viability, T/C [36] was 10%.

Work on `CCCS(=O)(=O)Nc1ccc(F)c(C(=O)c2c[nH]c3ncc(-c4ccc(Cl)cc4)cc23)c1F` + CN(C)c1ccc(Nc2c3ccc(NC(=O)CCN4CCCC4)cc3nc3cc(NC(=O)CCN4CCCC4)ccc23)cc1 yielded an IC50 (second compound 0.0316 µM) greater than 10 µM, an IC50 (second compound 0.1 µM) greater than 10 µM and an IC50 (second compound 0.316 µM) greater than 10 µM. For the same compound, the IC50 (second compound 1 µM) was greater than 10 µM, the IC50 (second compound 3.16 µM) was greater than 10 µM and the IC50 (second compound 10 µM) was greater than 10 µM. For the same compound, the viability, T/C [1] was 108%, the viability, T/C [2] was 99.9% and the viability, T/C [3] was 106%. For the same compound, the viability, T/C [4] was 106%, the viability, T/C [5] was 122% and the viability, T/C [6] was 68.1%. It also gave a viability, T/C [7] of 103%, a viability, T/C [8] of 94.5% and a viability, T/C [9] of 104%. The viability, T/C [10] was 109%, the viability, T/C [11] was 111% and the viability, T/C [12] was 65.9%. It also gave a viability, T/C [13] of 105%, a viability, T/C [14] of 108% and a viability, T/C [15] of 101%. The viability, T/C [16] was 106%, the viability, T/C [17] was 123% and the viability, T/C [18] was 68.3%. For the same compound, the viability, T/C [19] was 98.7%, the viability, T/C [20] was 99.3% and the viability, T/C [21] was 107%. The viability, T/C [22] was 119%, the viability, T/C [23] was 121% and the viability, T/C [24] was 64.2%. It also gave a viability, T/C [25] of 91%, a viability, T/C [26] of 103% and a viability, T/C [27] of 94.5%. It also gave a viability, T/C [28] of 100%, a viability, T/C [29] of 110% and a viability, T/C [30] of 72.4%. The viability, T/C [31] was 86.6%, the viability, T/C [32] was 89.3% and the viability, T/C [33] was 90.9%. For the same compound, the viability, T/C [34] was 91.2%, the viability, T/C [35] was 90% and the viability, T/C [36] was 67.5%.
